Results published in patent publication US8951995B2, “Use of 24-nor-UDCA” (Medizinische Universitat Graz, priority 2005, dated 2015).
Where two headings read alike, the source gives them in different places.

Columns and labels:
Mdr2−/− mice [1] = experiment: Routine serum biochemistry in bile acid-fed Mdr2−/− mice; assay type: in vivo; conditions: Mdr2−/− mice fed 0.5% w/w in diet for 4 weeks, mean ± SD, n = 5
Description: (§1) Two months-old Mdr2^−/− (a time point when sclerosing cholangitis is already fully established in these animals (Fickert, Zollner, et al. 2002) were either fed a diet supplemented with norUDCA (0.5%, w/w) or UDCA as a clinical comparator (0.5%, w/w) for 4 weeks and compared to standard-diet-fed Mdr2^−/− and wild type controls.
Serum samples were stored at −70° C. until analysis of alanine transaminase (ALT) and alkaline phosphatase (AP) by routine clinical chemistry performed on a Hitachi 717 analyzer (Boehringer Mannheim, Mannheim, Germany). For determination of total serum bile acid levels, a commercial 3-alpha-hydroxysteroid dehydrogenase assay (Ecoline S+; DiaSys, Holzheim, Germany) was used.

Sult2a1 = experiment: Real-time PCR, relative expression of Sult2a1; assay type: in vivo; conditions: liver mRNA, Mdr2−/− mice fed 0.5% w/w for 4 weeks; KO not detectable, KO + UDCA = 100; mean ± SD, n = 5
Description: as §1
(§2) RNA isolation, cDNA synthesis and Taqman® real time PCR were performed as described previously (Wagner, Fickert, et al. 2003). The following primers and 5′ FAM, 3′ TAMRA labeled probes were used: Col1a1 fwd: […] (Seq ID No. 35), Col1a1 rev: […] (Seq ID No. 36) and Col1a1 probe: […] (Seq ID No. 37); TIMP-1 fwd: […] (Seq ID No. 38), TIMP-1 rev: […] (Seq ID No. 39) and TIMP-1 probe: […] (Seq ID No. 40); MMP-2 fwd: […] (Seq ID No. 41), MMP-2 rev: […] (Seq ID No. 42) and MMP-2 probe: […] (Seq ID No. 43).

Mrp3 = experiment: Real-time PCR, relative expression of Mrp3; assay type: in vivo; conditions: liver mRNA, Mdr2−/− mice fed 0.5% w/w for 4 weeks; KO = 100; mean ± SD, n = 5
Description: as §1, §2

Ugt1a1 = experiment: Real-time PCR, relative expression of Ugt1a1; assay type: in vivo; conditions: liver mRNA, Mdr2−/− mice fed 0.5% w/w for 4 weeks; KO = 100; mean ± SD, n = 5
Description: as §1, §2

Mdr2−/− mice [2] = experiment: Bile flow and biliary excretion measurement; assay type: in vivo; conditions: Mdr2−/− mice fed 0.5% w/w for 4 weeks, mean ± SD; for Bile flow: normalized to liver weight
Description: as §1
Bile flow was determined gravimetrically and normalized to liver weight as described previously (Fickert, Zollner, et al. 2001). Biliary phospholipids concentration was determined using a commercially available kit (Phospholipid B; Wako, Neuss, Germany) according to the manufacture's instructions. Biliary cholesterol concentration was determined using a commercial available kit (Cholesterol liquicolor; Human, Wiesbaden, Germany) according to the manufacture's instructions. Biliary gluthathione (GSH) concentration was determined after protein precipitation in 5% metaphosphoric acid using the Glutathione Assay Kit (Calbiochem, San Diego, US) according to the manufacturer's instructions. Biliary bile acid concentration was analyzed using a 3-alpha-hydroxysteroid dehydrogenase assay (Ecoline St, DiaSys) according to the manufacturer's instructions.

Mrp4 = experiment: Real-time PCR, relative expression of Mrp4; assay type: in vivo; conditions: liver mRNA, Mdr2−/− mice fed 0.5% w/w for 4 weeks; KO = 100; mean ± SD, n = 5
Description: as §1, §2

Mdr2−/− mice [3] = experiment: Liver histology (H&E, Sirius red) in bile acid-fed Mdr2−/− mice; assay type: in vivo
Description: as §1
For conventional light microscopy, livers were fixed in 4% neutral buffered formaldehyde solution and embedded in paraffin. Sections (4 μm thick) were stained with H&E and Sirius red stain, respectively. The sections were coded and examined by a pathologist (H. D.) unaware of the animals' treatment.

Cyp3a11 = experiment: Real-time PCR, relative expression of Cyp3a11; assay type: in vivo; conditions: liver mRNA, Mdr2−/− mice fed 0.5% w/w for 4 weeks; KO = 100; mean ± SD, n = 5
Description: as §1, §2

Cyp7a1 = experiment: Real-time PCR, relative expression of Cyp7a1; assay type: in vivo; conditions: liver mRNA, Mdr2−/− mice fed 0.5% w/w for 4 weeks; KO = 100; mean ± SD, n = 5
Description: as §1, §2

Cyp2b10 = experiment: Real-time PCR, relative expression of Cyp2b10; assay type: in vivo; conditions: liver mRNA, Mdr2−/− mice fed 0.5% w/w for 4 weeks; KO = 100; mean ± SD, n = 5
Description: as §1, §2

[4] = humans, relative to normal bile flow; cited from earlier work
[5] = cited from earlier work
Mdr2−/− mice [6] = experiment: Hepatic hydroxyproline content; assay type: in vivo; conditions: Mdr2−/− mice fed 0.5% w/w for 4 weeks, vs control diet-fed KO; FIG. 2
Description: as §1
To quantify liver fibrosis in our model hepatic hydroxyproline content was determined. The right liver lobe was homogenized in 6-normal HCl (200 mg liver tissue/4 ml HCl) and hydrolyzed at 110° C. for 16 h. After filtration 50 μl were added to 450 μl 2.2% NaOH dissolved in citrate-acetate buffer (50 g citric acid×H2O, 12 ml acidic acid, 120 g sodium acetate×3H2O, 34 g NaOH ad 1 liter distilled water; pH 6.0). After adding 250 μl perchloric acid and 12 min incubation at room temperature 250 μl p-dimethylaminobenzaldehyde solution was added and incubated at 60° C. for 20 min. Hydroxyproline content was measured at 565 nm using a hydroxyproline standard curve.

[7] = system: portal neutrophils (CD11b-positive cells); experiment: Immunohistochemistry for neutrophils marker CD-11b; assay type: in vivo; conditions: Mdr2−/− mice fed 0.5% w/w for 4 weeks, vs standard diet-fed KO; FIG. 3
Description: as §1
To quantify neutrophils CD 11b-positive cells were detected as described previously (Fickert, Fuchsbichler, et al. 2004) with the modification that binding of the antibody was detected using the ABC system (Dako) using AEC (Dako) as substrate. Number of neutrophils was calculated by counting positive cells in 20 portal fields in sections of 3 animals in each group.

[8] = rats; cited from earlier work
Ntcp, Oatp1, Bsep, Mrp2 = experiment: mRNA expression of hepatocellular uptake and canalicular efflux systems; assay type: in vivo; conditions: Mdr2−/− mice fed 0.5% w/w for 4 weeks; data not shown
Description: as §1, §2

[9] = system: hepatocytes and cholangiocytes; experiment: Immunohistochemistry for proliferation marker Ki-67; assay type: in vivo; conditions: Mdr2−/− mice fed 0.5% w/w for 4 weeks; FIG. 5
Description: as §1
Immunohistochemistry for Ki-67 was performed on microwave-treated ([…] citrate buffer pH 6.0) paraffin sections (4 μm thick) using a polyclonal rabbit anti-Ki-67 antibody (dilution 1:750, Novocastra, Newcastle upon Tyne, UK). Binding of the antibody was detected using the ABC system (Dako) using AEC (Dako) as substrate. Number of proliferating hepatocytes was calculated by counting positive nuclei in 30 high power fields in sections of 3 animals in each group. Number of proliferating bile duct epithelial cells was calculated by counting positive nuclei in 20 portal fields in sections of 3 animals in each group.

collagen 1 and 3 mRNA = experiment: Hepatic collagen 1 and 3 mRNA expression; assay type: in vivo; conditions: Mdr2−/− mice fed 0.5% w/w for 4 weeks
Description: as §1, §2

[10] = norUDCA metabolism and excretion in mice; assay type: in vivo
[11] = Estimated choleretic potency in mice; assay type: in vivo; conditions: relative to normal bile flow
VCAM = experiment: Immunohistochemistry for vascular cell adhesion molecule (VCAM); assay type: in vivo; conditions: interlobular and lobular bile ducts, Mdr2−/− mice fed 0.5% w/w for 4 weeks; FIG. 4
Description: as §1
Immunohistochemistry for VCAM was performed on acetone fixed cryosections using the monoclonal rat anti CD106 (VCAM-1, dilution 1:30, PharMingen, San Diego, Calif., USA) and binding of the antibody was detected using the ABC system (Dako) using AEC (Dako) as substrate.

[12] = Mdr2−/− mice fed 0.5% w/w for 4 weeks

`C[C@H](CCC(=O)O)[C@H]1CC[C@H]2[C@@H]3[C@@H](O)C[C@@H]4C[C@H](O)CC[C@]4(C)[C@H]3CC[C@]12C` [UDCA, Ursodeoxycholic acid] gave an ALT (Mdr2−/− mice [1]) of 576 ± 175 U/L, an AP (Mdr2−/− mice [1]) of 399 ± 73 U/L and a Bili (Mdr2−/− mice [1]) of 0.55 ± 0.19. For the same compound, the “Relative expression level of Sult2a1” value (Sult2a1) was 100 ± 46, the “Relative expression level of Mrp3” value (Mrp3) was 194 ± 55 and the “Relative expression level of Ugt1a1” value (Ugt1a1) was 137 ± 55. The “Biliary excretion of bicarbonate” value (Mdr2−/− mice [2]) was 67.1 ± 10.0 nmol/g/min, the “Biliary excretion of bile acids” value (Mdr2−/− mice [2]) was 37.2 ± 7.6 nmol/g/min and the “Biliary excretion of cholesterol” value (Mdr2−/− mice [2]) was 0.3 ± 0.1 nmol/g/min. For the same compound, the “Biliary excretion of glutathione” value (Mdr2−/− mice [2]) was 5.6 ± 1.1 nmol/g/min, the “Biliary excretion of phospholipids” value (Mdr2−/− mice [2]) was 0.3 ± 0.03 nmol/g/min and the Bile flow (Mdr2−/− mice [2]) was 2.4 ± 0.3 µL/g/min. The “Relative expression level of Mrp4” value (Mrp4) was 357 ± 95, the “Animals showing bile infarcts” value (Mdr2−/− mice [3]; [12]) was 2 out of 5 and the “Relative expression level of Cyp3a11” value (Cyp3a11) was 246 ± 72. The “Relative expression level of Cyp7a1” value (Cyp7a1) was 9 ± 4 and the “Relative expression level of Cyp2b10” value (Cyp2b10) was 751 ± 245.
For `C[C@H](CC(=O)O)[C@H]1CC[C@H]2[C@@H]3[C@@H](O)C[C@@H]4C[C@H](O)CC[C@]4(C)[C@H]3CC[C@]12C` [norUDCA, 3-alpha,7-alpha-dihydroxy-24-nor-5-beta-cholan-23-oic acid], the ALT (Mdr2−/− mice [1]) was 165 ± 23 U/L, the AP (Mdr2−/− mice [1]) was 162 ± 25 U/L and the Bili (Mdr2−/− mice [1]) was 0.23 ± 0.2. For the same compound, the “Relative expression level of Sult2a1” value (Sult2a1) was 24157 ± 14948, the Estimated choleretic potency [4] was “about three times above that of normal bile flow” and the “Relative expression level of Mrp3” value (Mrp3) was 207 ± 73. For the same compound, the “Relative expression level of Ugt1a1” value (Ugt1a1) was 304 ± 81, the “Renal excretion of norUDCA” value ([5]; humans (men)) was “considerable renal excretion” and the “Major metabolite of norUDCA” value ([5]; humans) was “glucuronide”. For the same compound, the “Biliary excretion of bicarbonate” value (Mdr2−/− mice [2]) was 98.8 ± 14.6 nmol/g/min, the “Biliary excretion of bile acids” value (Mdr2−/− mice [2]) was 29.5 ± 2.3 nmol/g/min and the “Biliary excretion of cholesterol” value (Mdr2−/− mice [2]) was 0.2 ± 0.04 nmol/g/min. The “Biliary excretion of glutathione” value (Mdr2−/− mice [2]) was 5.8 ± 1.2 nmol/g/min, the “Biliary excretion of phospholipids” value (Mdr2−/− mice [2]) was 0.3 ± 0.1 nmol/g/min and the Bile flow (Mdr2−/− mice [2]) was 3.5 ± 0.3 µL/g/min. For the same compound, the Hepatic hydroxyproline content (Mdr2−/− mice [6]) was “reduced to baseline levels”, the “Number of portal neutrophils (CD11b-positive cells per 20 portal fields) / portal inflammation” value [7] was “significantly reduced number of portal neutrophils” and the Induced bile flow [8] was 0.16 mL/min/kg. The “mRNA expression of hepatocellular uptake (Ntcp, Oatp1) and canalicular efflux (Bsep, Mrp2) systems” value (Ntcp, Oatp1, Bsep, Mrp2) was “no significant effects”, the “Proliferation of bile duct epithelial cells / cholangiocytes (Ki-67 positive)” value [9] was “significantly reduced the degree of hepatocyte and bile duct epithelial cell proliferation to nearly wild type control levels” and the “Proliferation of hepatocytes (Ki-67 positive)” value [9] was “significantly reduced the degree of hepatocyte and bile duct epithelial cell proliferation to nearly wild type control levels”. The “Hepatic collagen 1 and 3 mRNA expression” value (collagen 1 and 3 mRNA) was “significant reduction”, the “Major metabolite of norUDCA” value ([10]; mice) was “glucuronide” and the “Renal excretion of norUDCA” value ([10]; mice) was “considerable renal excretion”. The “Bile acid sulfates and glucuronides in urine” value ([10]; norUDCA fed Mdr2−/− mice) was “appearance of bile acid sulfates and glucuronides in urine”, the “Relative expression level of Mrp4” value (Mrp4) was 590 ± 193 and the Estimated choleretic potency [11] was “about three times above that of normal bile flow”. For the same compound, the Ductular proliferation (Mdr2−/− mice [3]; [12]) was “virtually absent”, the “Large bile duct disease (H&E staining)” value (Mdr2−/− mice [3]; Mdr2−/− mice fed 0.5% w/w for 4 weeks, vs control diet-fed KO, FIG. 1A) was “absent” and the “Fibrosis with periductal collagen fibers (Sirius red staining)” value (Mdr2−/− mice [3]; Mdr2−/− mice fed 0.5% w/w for 4 weeks, vs control diet-fed KO, FIG. 1C) was “even more pronounced reduction”. The Sclerosing cholangitis (Mdr2−/− mice [3]; Mdr2−/− mice, model for PSC, within 4 weeks) was “cures sclerosing cholangitis”, the “VCAM expression in bile duct epithelial cells” value (VCAM) was “significantly lower VCAM expression” and the “Relative expression level of Cyp3a11” value (Cyp3a11) was 241 ± 45. For the same compound, the “Relative expression level of Cyp7a1” value (Cyp7a1) was 60 ± 30 and the “Relative expression level of Cyp2b10” value (Cyp2b10) was 1294 ± 418.
